# Data reported in publication PMC9632859, “Modulation of NMDA receptor activity by CR4056, an imidazoline-2 receptor ligand with analgesic properties” (Frontiers in Pain Research, 2022).
# Several values for one entry are separate records, joined by “and”; a condition that tells them apart may be missing. Equal entries are not always repeated.
# Tests used:
# NMDA receptor [1] = assay: NMDA-evoked currents in primary culture of cortical neurons, whole-cell patch-clamp; type: cell-based, rat; details: for IC50: NMDA 100 µM + glycine 10 µM, read-out: IC50 of reduction of NMDA-evoked current; for maximal reduction of NMDA current (efficacy): from dose-response curve
# Description: (§1) Primary cultures of cortical (CX) and cerebellar (CB) neurons were prepared from newborn (CX) or seven days old (CB) Sprague-Dawley rats Briefly, cells from cortex and cerebellum were dispersed with trypsin (0.24 mg/ml; Sigma Aldrich, Milan, Italy) and plated at a density of 0.8 × 10^6 cells/ml on 35 mm Falcon dishes coated with poly-L-lysine (10 µg/ml, Sigma Aldrich). Cells were plated in basal Eagle's Medium (BME; Celbio, Milan, Italy), supplemented with 10% fetal bovine serum (Celbio), 2 mM glutamine, 25 mM KCl and 100 µg/ml gentamycin (Sigma Aldrich) and maintained at 37°C in 5% CO2. After 24 h in vitro, the medium was replaced with 1:1 mixture of BME and Neurobasal medium (Celbio, Milan) containing 2% B27 supplement, 1% antibiotic, and 0.25% glutamine (Invitrogen). At […] in vitro (DIV5), cytosine arabinofuranoside (Ara-C) was added at final concentration of 1 µM. Thereafter, half of the medium was replaced twice a week with Neurobasal medium containing 2% B27 supplement, 1% antibiotic, and 0.25% glutamine.
# (§2) Recordings were performed in cortical and cerebellar neurons after 7–9 days in culture or in spinal cord slices from postnatal rats. All recordings were performed at room temperature, under voltage-clamp in the whole-cell configuration of the patch-clamp technique ([19]). […] Currents were amplified with an Axopatch 1D amplifier (Axon Instruments, Foster City. CA), filtered at 5 kHz, digitized at 10 kHz.
# (§3) The chamber used for recording from cultured neurons was continuously perfused at 2 ml/min with an extracellular medium composed of (mM): 145 NaCl, 5 KCl, 1 CaCl2, 5 Hepes, 5 Glucose, and 20 Sucrose, pH 7.4 with NaOH. Intracellular solution contains (mM): 140 KCl, 3 MgCl2, 5 EGTA, 5 Hepes, and 2 ATP-Na, pH 7.3 with KOH.
# (§4) All drugs were applied directly by gravity through a Y-tube perfusion system ([21]) in the experiments performed in culture while in slice experiments CR4056 and the receptor antagonists were bath perfused.
# When CR4056 (10 µM) was delivered inside the cell through the patch pipette the response to NMDA application was recorded at time 0 (just after breaking inside the cell) and after 1.5, 3, 4.5, 6 min. The NMDA-evoked current was recorded at these time intervals and the amplitude of the current was measured.
# The effect of CR 4056 in primary neuronal cultures was calculated as % variation of the NMDA-evoked current after application of the drug. A negative variation means a reduction of the control current. Off-line data analysis, curve fitting, and figure preparation were performed with Clampfit 9 or 10 (Molecular Devices, Sunnyvale, CA, United States), Origin 4.1 (Microcal, Northampton, MA, United States), and Microsoft Office (Microsoft). SigmaPlot 11 (SYSTAT, Palo Alto, CA, United States) and GraphPad Prism 9.3 (GraphPad Software, San Diego, CA, United States) were used for statistical analysis.
# NMDA-evoked currents were recorded in primary culture of cortical neurons using the patch-clamp technique in the whole cell configuration. Fast application of NMDA (100 µM) and Glycine (10 µM) elicited an inward current that was decreased by CR4056 (Figure 1A); the effect was reversible and dose-dependent (Figure 1B). […] (Figure 1B).
# [2] = biological target: GluN1-GluN2A containing receptors (Homo sapiens, UniProt Q05586+Q12879); assay: NMDA-evoked currents in JM4C fibroblasts expressing GluN1-GluN2A; type: cell-based; details: for IC50: 0.1–100 µM, read-out: IC50 of reduction of NMDA-evoked current, GluN1-GluN2A; for Emax: read-out: efficacy (Eff, maximal effect) on NMDA-evoked current, GluN1-GluN2A
# Chain of GluN1-GluN2A containing receptors (Q12879 23-1464, other chains not shown): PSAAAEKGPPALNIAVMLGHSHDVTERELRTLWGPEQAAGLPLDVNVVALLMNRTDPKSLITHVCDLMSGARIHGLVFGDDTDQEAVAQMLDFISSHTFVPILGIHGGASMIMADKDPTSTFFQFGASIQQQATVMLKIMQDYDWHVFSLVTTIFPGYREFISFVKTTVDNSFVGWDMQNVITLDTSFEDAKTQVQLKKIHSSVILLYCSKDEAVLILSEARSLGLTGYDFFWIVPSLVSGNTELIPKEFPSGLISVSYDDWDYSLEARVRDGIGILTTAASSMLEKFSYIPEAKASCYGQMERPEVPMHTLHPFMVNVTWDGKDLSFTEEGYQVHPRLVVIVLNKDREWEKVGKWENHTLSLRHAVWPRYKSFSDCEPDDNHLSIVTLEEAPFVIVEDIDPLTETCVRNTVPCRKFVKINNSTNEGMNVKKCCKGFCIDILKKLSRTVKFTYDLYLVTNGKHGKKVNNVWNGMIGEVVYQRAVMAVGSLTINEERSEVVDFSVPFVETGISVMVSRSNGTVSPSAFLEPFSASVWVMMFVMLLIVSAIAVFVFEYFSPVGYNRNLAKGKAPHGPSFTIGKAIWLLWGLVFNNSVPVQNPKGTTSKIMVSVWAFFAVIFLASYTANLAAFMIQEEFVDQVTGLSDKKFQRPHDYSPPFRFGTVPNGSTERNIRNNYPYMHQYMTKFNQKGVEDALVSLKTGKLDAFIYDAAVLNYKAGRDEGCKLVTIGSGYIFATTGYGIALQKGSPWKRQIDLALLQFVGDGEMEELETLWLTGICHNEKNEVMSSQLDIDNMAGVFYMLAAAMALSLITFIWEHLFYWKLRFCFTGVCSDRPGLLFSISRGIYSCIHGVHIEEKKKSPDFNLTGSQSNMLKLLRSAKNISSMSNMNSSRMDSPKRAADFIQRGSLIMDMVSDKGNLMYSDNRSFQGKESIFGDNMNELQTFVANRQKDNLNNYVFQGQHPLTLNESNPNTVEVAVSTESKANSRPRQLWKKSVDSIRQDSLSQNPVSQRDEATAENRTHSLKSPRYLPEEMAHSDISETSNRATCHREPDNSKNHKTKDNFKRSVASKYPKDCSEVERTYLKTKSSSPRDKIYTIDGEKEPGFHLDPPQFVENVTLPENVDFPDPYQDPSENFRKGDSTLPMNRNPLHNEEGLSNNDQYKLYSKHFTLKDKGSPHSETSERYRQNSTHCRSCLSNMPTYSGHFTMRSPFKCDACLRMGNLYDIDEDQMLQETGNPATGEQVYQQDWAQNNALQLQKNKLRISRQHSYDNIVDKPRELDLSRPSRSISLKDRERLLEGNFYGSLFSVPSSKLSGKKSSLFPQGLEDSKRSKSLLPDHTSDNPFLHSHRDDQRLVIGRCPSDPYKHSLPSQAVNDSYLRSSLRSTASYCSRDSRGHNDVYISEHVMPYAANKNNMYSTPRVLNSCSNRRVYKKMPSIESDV
# Description: (§5) Mouse connective tissue fibroblasts JM4C cells stably transfected with NR1A/NR2A or NR1A/NR2B human NMDA inducible receptors were kindly donated by Dr. Paul Whiting, Merk Sharp / Dohme (UK). They were grown in Dulbecco's Modified Basal Eagle's medium (DMEM) with Na+ pyruvate, 4,500 mg glucose and glutamine. For growing, DMEM was added with geneticin 1 mg/ml (Sigma) and foetal bovine serum 10% (Celbio). One day before experiment, fibroblasts confluent dishes were split with trypsin-EDTA 0.05% (Euroclone) and plated at the density of 0.5 × 10^6 cells/ml in 2 ml dishes containing an inducing DMEM with ketamine (final concentration 0.015%, Gellini International, Italy) and 25 nM dexamethasone (Sigma Aldrich) to induce NMDA receptors expression.
# as §2, §3, §4
# (§6) Increasing concentrations of CR4056 (0.1–100 µM) were applied to NMDA-evoked currents in fibroblasts expressing GluN1- GluN2A or GluN1- GluN2B subunits (Figure 3A).
# GluN1-GluN2B receptors = GluN1-GluN2B receptors (Homo sapiens, UniProt Q05586+Q13224); assay: NMDA-evoked currents in JM4C fibroblasts expressing GluN1-GluN2B; type: cell-based; details: for IC50: 0.1–100 µM, read-out: IC50 of reduction of NMDA-evoked current, GluN1-GluN2B; for Emax: read-out: efficacy (Eff, maximal effect) on NMDA-evoked current, GluN1-GluN2B
# Chain of GluN1-GluN2B receptors (Q13224 27-1484, other chains not shown): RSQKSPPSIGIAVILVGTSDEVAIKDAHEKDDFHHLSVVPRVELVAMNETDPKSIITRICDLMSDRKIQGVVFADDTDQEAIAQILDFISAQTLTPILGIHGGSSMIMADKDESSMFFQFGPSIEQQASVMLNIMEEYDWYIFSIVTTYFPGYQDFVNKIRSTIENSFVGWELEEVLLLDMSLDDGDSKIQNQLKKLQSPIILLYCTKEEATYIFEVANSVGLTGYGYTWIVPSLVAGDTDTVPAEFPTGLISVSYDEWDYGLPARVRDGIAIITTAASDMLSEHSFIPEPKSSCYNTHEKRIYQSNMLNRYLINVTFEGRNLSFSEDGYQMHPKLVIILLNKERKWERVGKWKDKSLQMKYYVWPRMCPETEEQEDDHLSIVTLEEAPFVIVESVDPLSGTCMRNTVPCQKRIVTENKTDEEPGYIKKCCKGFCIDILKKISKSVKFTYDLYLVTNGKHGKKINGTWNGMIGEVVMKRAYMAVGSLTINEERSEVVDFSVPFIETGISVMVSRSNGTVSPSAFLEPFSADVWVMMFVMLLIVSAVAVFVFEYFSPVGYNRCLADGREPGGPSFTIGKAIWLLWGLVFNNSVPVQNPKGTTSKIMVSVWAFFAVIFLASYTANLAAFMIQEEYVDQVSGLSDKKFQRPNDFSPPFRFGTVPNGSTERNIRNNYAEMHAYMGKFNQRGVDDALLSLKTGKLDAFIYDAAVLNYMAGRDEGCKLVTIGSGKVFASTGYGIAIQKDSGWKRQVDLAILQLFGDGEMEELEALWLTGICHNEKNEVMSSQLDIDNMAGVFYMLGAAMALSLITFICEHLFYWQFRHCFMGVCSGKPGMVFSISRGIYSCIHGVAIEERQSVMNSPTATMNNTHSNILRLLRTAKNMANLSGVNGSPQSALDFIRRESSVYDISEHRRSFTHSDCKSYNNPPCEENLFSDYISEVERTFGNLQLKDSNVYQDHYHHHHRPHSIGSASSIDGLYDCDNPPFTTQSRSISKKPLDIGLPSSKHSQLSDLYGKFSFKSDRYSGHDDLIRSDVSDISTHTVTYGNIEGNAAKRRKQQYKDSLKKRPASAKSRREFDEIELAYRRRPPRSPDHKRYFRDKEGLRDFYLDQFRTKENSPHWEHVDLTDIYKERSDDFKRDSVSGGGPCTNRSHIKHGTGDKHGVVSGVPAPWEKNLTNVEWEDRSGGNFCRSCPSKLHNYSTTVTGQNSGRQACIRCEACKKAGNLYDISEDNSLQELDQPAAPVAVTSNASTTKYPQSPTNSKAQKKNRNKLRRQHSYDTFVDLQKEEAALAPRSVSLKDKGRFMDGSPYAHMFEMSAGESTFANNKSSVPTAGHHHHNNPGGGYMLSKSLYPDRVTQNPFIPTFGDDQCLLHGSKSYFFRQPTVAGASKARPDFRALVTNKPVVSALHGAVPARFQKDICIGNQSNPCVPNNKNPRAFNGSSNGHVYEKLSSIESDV
# Description: as §5, §2, §3, §4, §6
# PKCε translocation = test system: PKCε translocation; set-up: method as in PMID 31454418; details: activated sensory neurons, cultured DRG; cited from earlier work
# [3] = test system: lamina II neuron excitability; assay: Current-clamp recording of summated EPSPs and action potentials on repetitive dorsal root stimulation; type: cell-based, rat
# Source text: (§7) Sprague–Dawley rats (male and female at postnatal days P15-P23) were anaesthetized with isoflurane and decapitated. The spinal cord and vertebrae were rapidly removed and placed in ice-cold dissecting Krebs' solution (composition in mM: 90 NaCl, 50 sucrose, 2.5 KCl, 25 NaHCO3, 1 NaH2PO4·H2O, 25 glucose, 6 MgCl2, 1.5 CaCl2, 1 kynurenic acid), bubbled with carboxygen (95% O2, 5% CO2). The lumbar part of the spinal cord was isolated, embedded in low melting point agarose (3% w/v, Thermo Fisher Scientific, Waltham, United States), and transverse slices (500 µm thick) were obtained using a vibrating microtome (WPI, Sarasota, United States). Slices were incubated in oxygenated incubation Krebs' solution (composition in mM: 125 NaCl, 2.5 KCl, 25 NaHCO3, 1 NaH2PO4·H2O, 25 glucose, 6 MgCl2, 1.5 CaCl2) at 32°C for 30 min and then used for recording.
# (§8) Neurons in spinal cord slices were visualized using an Axioskop microscope (Zeiss, Oberkochen, Germany), fitted with Nomarski optics and connected to a CCD camera (Dage-MTI, Michigan City, United States). Patch-clamp recordings were performed by using thick-walled borosilicate pipettes (3–5 MOhm resistance). Data were recorded and acquired using a MultiClamp 700A amplifier and the pClamp 10 software (Molecular Devices, Sunnyvale, United States). Sampling rate was 10 kHz, and data were filtered at 2–5 kHz. The dorsal root attached to each slice was stimulated using a suction electrode. Stimulus duration was 0.1 ms, stimulus intensity was 500 µA, able to activate both A and C primary afferent fibers ([20]). Extracellular field potentials were recorded by positioning a glass pipette (3–5 µm diameter, filled with Krebs' extracellular solution) on lamina II in spinal cord slices. Extracellular synaptic potentials were evoked by dorsal root stimulation, as described above, and amplified by using a Multiclamp 700A amplifier (Molecular Devices, Sunnyvale, United States).
# For the experiments on neurons in slices the following Krebs' extracellular solution was used (composition in mM): 125 NaCl, 2.5 KCl, 25 NaHCO3, 1 NaH2PO4·H2O, 25 glucose, 1 MgCl2, 2 CaCl2. A cesium-based internal solution was used during the voltage-clamp experiments (composition in mM: 120 caesium methanesulfonate, 10 sodium methanesulfonate, 10 EGTA, 1 CaCl2, 10 Hepes, 5 lidocaine N-ethyl bromide quaternary salt-Cl, 5 MgATP, pH adjusted to 7.2 with CsOH, osmolarity 290 mOsmol L^−1), while a potassium-based solution was utilized for the experiments in current-clamp (composition in mM: 120 potassium methanesulfonate, 10 NaCl, 10 EGTA, 1 CaCl2, 10 Hepes, 5 MgATP, pH adjusted to 7.2 with KOH, osmolarity 300 mOsmol L^−1).
# Finally, we tested whether CR4056 was able to depress lamina II neuron excitability in response to repetitive stimulation of the dorsal root. […]
# NMDA receptor [4] = assay: NMDA-evoked currents in primary culture of cerebellar neurons, whole-cell patch-clamp; type: cell-based, rat; details: CR4056 10 µM, glycine 1-500 µM, one-way ANOVA
# Description: as §1, with “Thereafter, half of the medium was replaced twice a week with Neurobasal medium containing 2% B27 supplement, 1% antibiotic, and 0.25% glutamine.” left out
# The effect of CR 4056 in primary neuronal cultures was calculated as % variation of the NMDA-evoked current after application of the drug. […]
# Glycine is an important co-agonist of the NMDA receptor. To test the dependence of CR4056 modulation on glycine concentration we measured the reduction of NMDA current by CR4056 (10 µM) in the presence of 1, 5, 10, 50, 100, and 500 µM glycine.
# [5] = test system: field potentials from dorsal horn laminae I-II (mainly mediated by AMPARs); assay: Extracellular field potentials evoked by dorsal root stimulation in spinal cord slices; type: cell-based, rat; details: 6 slices; p > 0.05
# Source text: as §7, with “Slices were incubated in oxygenated incubation Krebs' solution (composition in mM: 125 NaCl, 2.5 KCl, 25 NaHCO3, 1 NaH2PO4·H2O, 25 glucose, 6 MgCl2, 1.5 CaCl2) at 32°C for 30 min and then used for recording.” left out
# Neurons in spinal cord slices were visualized using an Axioskop microscope (Zeiss, Oberkochen, Germany), fitted with Nomarski optics and connected to a CCD camera (Dage-MTI, Michigan City, United States). […] Data were recorded and acquired using a MultiClamp 700A amplifier and the pClamp 10 software (Molecular Devices, Sunnyvale, United States). […] Extracellular field potentials were recorded by positioning a glass pipette (3–5 µm diameter, filled with Krebs' extracellular solution) on lamina II in spinal cord slices. […]
# To determine whether the effect of CR4056 on NMDA EPSCs was due to a decrease of glutamate release from primary afferents or to a modulation of NMDARs, we recorded extracellular field potentials evoked by dorsal root stimulation (Figure 4E). […]
# [6] = test system: NMDA-mediated postsynaptic excitatory currents (EPSCs); assay: NMDA EPSCs evoked by dorsal root stimulation in lamina II neurons of spinal cord slices; type: cell-based, rat
# Source text: as §7
# as §8, with “Extracellular synaptic potentials were evoked by dorsal root stimulation, as described above, and amplified by using a Multiclamp 700A amplifier (Molecular Devices, Sunnyvale, United States).” left out
# We next investigated the modulatory effect of CR4056 on NMDA-mediated postsynaptic excitatory currents (EPSCs) recorded from lamina II neurons in rat spinal cord slices. […] To isolate NMDA EPSCs (recorded in voltage clamp at +40 mV), AMPA, GABAA and glycine receptors were blocked by NBQX (10 µM), bicuculline (10 µM), and strychnine (0.5 µM), respectively. […]
# [7] = CR4056 10 µM, 4 pulses 5–10 Hz, 500 µA
structure (smiles),measurement,setting,value
"c1ccc2c(c1)OCC(C1=NCCN1)O2 (stereo not shown) [Idazoxan, reference compound]",effect on NMDA-elicited current applied alone,NMDA receptor [1]; 10 µM,did not affect
"Cl.c1ccc2oc(C3=NCCN3)cc2c1 [2-BFI, 2-(2-Benzofuranyl)-2-imidazoline hydrochloride, reference compound]",IC50,[2],23 ± 12 µM
same,Emax,[2],-39 ± 6%
same,IC50,GluN1-GluN2B receptors,11 ± 6 µM
same,Emax,GluN1-GluN2B receptors,-73 ± 7%
same,IC50,NMDA receptor [1]; cortical neurons,8 µM and 13 µM
same,maximal reduction of NMDA current (efficacy),NMDA receptor [1]; cortical neurons,76 ± 2% and 48 ± 5%
same,effect on PKCε translocation,PKCε translocation,ineffective
"c1ccc(-c2ncc3cc(-n4ccnc4)ccc3n2)cc1 [CR4056, 2-phenyl-6-(1H-imidazol-1yl)quinazoline]",IC50,[2],21 ± 12 µM
same,Emax,[2],-47 ± 3%
same,IC50,GluN1-GluN2B receptors,11 ± 2 µM
same,Emax,GluN1-GluN2B receptors,-86 ± 6%
same,change of area of the summated EPSPs,[3]; [7],−29.7 ± 5.4%
same,change of mean number of action potentials generated at each train,[3]; [7],−50.9 ± 12.6%
same,"EPSP area in CR, mean","[3]; during CR4056, N 7, control mean 11858.457",8924.714 mV*ms
same,"N action potentials/train in CR, median","[3]; during CR4056, N 7, control median 0.310",0.150
same,"change of amplitude of NMDA currents, compound dialyzed inside the cell via patch pipette","NMDA receptor [1]; 10 µM intracellular, p > 0.05, t-test",did not change significantly
same,CR4056 effect on NMDA current when co-applied with idazoxan,NMDA receptor [1]; CR4056 10 µM + idazoxan 10 µM,does not change CR4056 effect
same,reduction of current evoked by increasing NMDA concentration (type of antagonism),"NMDA receptor [1]; CR4056 10 µM, NMDA 10 to 100 µM",reduced to the same extent
same,reduction of NMDA currents in control vs after pertussis toxin,NMDA receptor [1]; PTX 200 ng/ml for 24 h,no statistically significant differences
same,effect on NMDA current at high glycine concentrations,"NMDA receptor [1]; cortical neurons, CR4056 10 µM, glycine 1-500 µM, one-way ANOVA",significatively reduced
same,IC50,NMDA receptor [1]; cortical neurons,5.3 ± 0.1 µM
same,maximal reduction of NMDA current (efficacy),NMDA receptor [1]; cortical neurons,84.4 ± 6%
same,reduction of NMDA-evoked current at +40 mV,"NMDA receptor [1]; holding potential +40 mV, CR4056 10 µM",−31 ± 1%
same,reduction of NMDA-evoked current at −40 mV,"NMDA receptor [1]; holding potential −40 mV, CR4056 10 µM",−33 ± 4%
same,effect on NMDA current at high glycine concentrations,NMDA receptor [4],significatively reduced
same,effect on field potential area,[5],did not affect
same,average reduction in NMDA EPSC amplitude,"[6]; CR4056 10 µM, +40 mV, NBQX, bicuculline, strychnine present, 7 neurons",26.3 ± 4.2%
same,"EPSC amplitude in WASH, mean","[6]; after washing of CR4056, N 7",514.986 pA
same,"EPSC amplitude in CR, mean","[6]; during CR4056, N 7, control mean 597.629",475.443 pA
same,effect on PKCε translocation,PKCε translocation,reduces PKCε translocation
